Tests used:
[1] = test system: wild type, ku80, mre11-2 and ku80mre11-2 mutant seedlings; assay: Assays for sensitivity to bleomycin and methyl methane sulfonate (MMS); type: in vivo, Arabidopsis thaliana; conditions: ku80mre11-2 double mutant, 0.02, 0.05 μg/ml bleomycin or 0.005%, 0.01% MMS; for fresh weight of double mutant plants in comparison with wild type and each of the single mutants: 10-days-old plate-grown plants; for growth phenotype of double mutant compared with each of the single mutants: scored 2 weeks after germination
Experimental: Seeds of wild type, ku80, mre11-2 and ku80mre11-2 mutants were surface-sterilized as described (Weijers et al. 2001) and germinated on solid % MS medium without additions or containing 0.02 μg/ml or 0.05 μg/ml bleomycin (Sigma), 0.005% (v/v), 0.007% or 0.01% MMS (Sigma) and photographed after 2 weeks. After 10 days growth, the fresh weight (compared with controls) was determined by weighing the seedlings in batches of 20 in duplicate. Statistical analyses were performed using Prism version 5 (GraphPad Software Inc.).

[2] = test system: root tips of Arabidopsis seedlings (wild type, ku80, mre11-2, ku80mre11-2); assay: Cell death assay (propidium iodide staining of root tips); type: in vivo, Arabidopsis thaliana; conditions: 0.05 μg/ml bleomycin for 1 day and 4 days; 4-d-old seedlings; more cell death in ku80mre11-2 double mutant
Experimental: Four days old seedlings on MS-agar plates were transferred to new MS-plates with DNA damaging agents. After one or four days treatments, the seedlings were placed in propidium iodide solution (PI, Sigma-Aldrich, 5 μg/ml in water) for 1 min and rinsed three times with water. Root tips were then transferred to slides in a drop of water and covered with a cover slip for observation under the fluorescence microscope.

| Compound | fresh weight of double mutant plants in comparison with wild type and each of the single mutants [1] | growth phenotype of double mutant compared with each of the single mutants [1] | cell death in the root meristem (PI staining) [2] |
| --- | --- | --- | --- |
| COS(C)(=O)=O [MMS, Methyl Methane Sulfonate] | dramatically reduced | grew more slowly and developed fewer true leaves | – |
| bleomycin | dramatically reduced | grew more slowly and developed fewer true leaves | caused cell death in the root meristem of both wild type and the mutants |

— patent publication US20200325487A1, “A COM[…] FOR REDUCING RANDOM I[…] WHEN TR[…]” (UNIVERSITEIT LEIDEN, priority 2017, published 2020)
